From patent US4650811A, “Ethenylphenol-indoles having antiarythmic utility” (Roussel Uclaf, priority 1984, dated 1987) come the findings set out here.

Each structure is given as a SMILES string. Bounds are passed on as bounds.

One data set has as its system α2 - adrenergic receptor. Put plainly: α2 - adrenergic receptor affinity (3H rauwolscine displacement, rat cortices). Type of data set: binding. Conditions: ARL=100 CD/CX relative to phentolamine, 25° C., 45 minutes. As to the method:
10 cortices removed from the brains of male rats weighing on the average […] were homogenized in 90 ml of 0.32 M sucrose and after centrifuging the homogenized mixture at 1,000 g for 10 minutes at 0° C., the supernatant was centrifuged at 30,000 g for 10 minutes at 0° C. to +4° C. The residue was suspended in 240 ml of Tris HCl 50 mM buffer, pH 7.7 and centrifuged at 30,000 g for 15 minutes at 0° to +4° C. The new residue obtained was suspended in 480 ml of NaKPO4 50 mM buffer, pH 7.4. Then, 2 ml of suspension were incubated for 45 minutes at 25° C. in the presence of ^3 H rauwolscine at a concentration of […]:
(§1) (ii) with increasing concentrations of the product under test, or
(iii) to determine the non-specific fixation, with non-radioactive phentolamine at a concentration of 10^-5 M.
The incubated suspensions were filtered on Whatman GF/C and the filters were washed three times with 5 ml of NaKPO4 buffer, pH 7.4, at 0° C. The radio-activity of the filters was measured by liquid scintillation. The affinity of the product under test for the α2 - adrenergic receptors were given relative to phentolamine as reference product. CD=concentration of phentolamine inhibiting 50% of the specific fixation of ^3 H rauwolscine:
CX=concentration of the product under test inhibiting 50% of the specific fixation of ^3 H rauwolscine.

In data set [1] the test system is arterial pressure of male rats of Wistar strain. Description: Hypotensive activity (carotid arterial pressure in anesthetized rats). Format: in vivo, rat (Wistar). Conditions: 1 mg/Kg, intravenous, vs initial control arterial pressure. As to the method:
The hypotensive activity was studied on male rats of Wistar strain weighing about 300 g and anesthetized with 50 mg/Kg by intravenous route of sodium pentobarbital. The product tested was administered by intravenous route in the jugular vein and the pressure in the carotid artery was measured before and after administration of the product tested. The following table reports the variations expressed in percentage of the arterial pressure after administration of the product tested by comparison with the initial control arterial pressure.

For another data set, the system named is mice. Description: Acute toxicity after oral administration to mice. Format: in vivo. As to the method:
The lethal doses LD0 for the different test compounds were evaluated after oral administration to mice and the maximum dose not causing any mortality in 8 days was called LD0.

The target in another data set is T1, β1 - adrenergic receptor (Rattus norvegicus, UniProt P18090).
T1 construct: 10 cortices removed from the brains of rats; from tissue; host or cells: rat brain cortex, membrane preparation
Description: β1 - adrenergic receptor affinity (3H dihydroalprenolol displacement, rat cortices). Format: binding. The note with it: ARL=100 CD/CX relative to propranolol; 3H dihydroalprenolol 10^-9 M, 37° C., 10 minutes. As to the method:
10 cortices removed from the brains of rats weighing on the average 150 g were homogenized in 90 ml of 0.32 M sucrose and after centrifuging the homogenized mixture at 1,000 g for 20 minutes at 0° C., the supernatant was centrifugated at 30,000 g for 15 minutes at 0° C. to +4° C. The residue was suspended in 120 ml of Tris HCl 50 mM buffer pH 7.7 and centrifuged at 30,000 g for 15 minutes at 0° C. to +4° C. The new residue obtained was suspended in 480 ml of Krebs Tris HCl 50 mM buffer, 7.7 pH. Then, 2 ml of the suspension were incubated for 10 minutes at 37° C. in the presence of ^3 H dihydroalprenolol at a concentration of 10^-9 M:
as §1
(iii) to determine the non-specific fixation, with non-radioactive propranolol at a concentration of 10^-5 M.
The incubated suspensions were filtered on Whatman GF/C and the filters were washed three times with 5 ml of Krebs Tris HCl buffer pH 7.7 at 0° C. The radio-activity of the filters was measured by liquid scintillation. The affinity of the product for the adrenergic receptors was given relative to propranolol as reference product,
CD=concentration of propranolol inhibiting 50% of the specific fixation of the ^3 H dihydroalprenolol: CX=concentration of the product under test inhibiting 50% of the specific fixation of the ^3 H dihydroalprenolol.

The target of another data set is T2, β2 - adrenergic receptor (Rattus norvegicus, UniProt P10608).
T2 construct: The cerebelli removed from the brains of male rats; from tissue; host or cells: rat cerebellum, membrane preparation
Put plainly: β2 - adrenergic receptor affinity (3H dihydroalprenolol displacement, rat cerebelli). Format: binding. Conditions: ARL=100 CD/CX relative to propranolol; 3H dihydroalprenolol 10^-9 M, 37° C., 10 minutes. As to the method: The cerebelli removed from the brains of male rats weighing on the average 150 g were homogenized in 90 ml of 0.32 M sucrose and after centrifuging the homogenized mixture at 1,000 g for 20 minutes at 0° C., the supernatant was centrifuged at 30,000 g for 15 minutes at 0° C. to +4° C. The residue was suspended in 120 ml of Tris HCl 50 mM buffer pH 7.7, and centrifuged at 30,000 g for 15 minutes at 0° to +4° C. The new residue obtained was suspended in 480 ml of Krebs Tris HCl buffer, pH 7.7. 2 ml of the suspension were then incubated at 37° C. for 10 minutes in the presence of 3H dihydroalprenolol at a concentration of 10^-9 M:
(ii) with increasing concentrations of the product under test
(iii) to determine the non-specific fixation, with non-radio-active propranolol at a concentration of 10^-5 M. The incubated suspensions were filtered on Whatman GF/C and the filters were washed three times with 5 ml of Krebs Tris HCl buffer pH 7.7 at 0° C.
The radio-activity of the filters was measured by liquid scintillation. The affinity of the test product for β2 - adrenergic receptors was given relative to propranolol as reference product.
CD=concentration of propranolol inhibiting 50% of the specific fixation of ^3 H dihydroalprenolol:
CX=concentration of the product under test inhibiting 50% of the specific fixation of the ^3 H dihydroalprenolol.

Another data set relates to Rat caudal arteries. Description: Anti-calcic activity in vitro: inhibition of K+-depolarized, Ca2+-induced contraction of rat caudal arteries. The note with it: rat caudal artery, depolarized with 100 mM K+, Ca2+ 0.1 to 3.0 mM, 37° C. As to the method:
Rat caudal arteries were cut into a spiral and were attached to tension sensors and were kept in tanks of […] of Krebs buffer-sodium bicarbonate (NaCl: 120.8 mM, KCl: 5.9 mM, MgCl2 : 1.2 mM, NaH2 PO4 : 1.2 mM, NaHCO3 : 15.5 mM, glucose: 12.6 mM) at 37° C. gassed with a mixture of O2 : 95% - CO2 : 5%. The preparations were depolarized with a buffer solution with a concentration of 100 mM in K^+ ions (NaCl: 26.7 mM, KCl: 100 mM, MgCl2 : 1.2 mM, NaH2 PO4 : 1.2 mM, NaHCO3 : 15.5 mM, glucose: 12.6 mM). Calcium chloride was added in a volume of 250 μ1 to obtain a range of increasing concentrations of Ca^2+ ions from 0.1 to 3.0 mM. The contractions of the arteries were recorded and a control range was established in this way. The operation was repeated every 15 minutes with the Ca^2+ range of ions and the preparation was washed four times after each range.
When a stable response had been obtained, the operation with the range of Ca^2+ ions was carried out in the presence of different concentrations of the product under test until a stable response was obtained. The contractions of the arteries depend on the entry of the Ca^2+ ions into the cells of the smooth muscles and are caused by the depolarization of the smooth muscle by the K^+ ions and by the action of the noradrenaline liberated at the presynaptic level. By repeating the operation with the arteries denervated by the action of 6-OH dopamine, the specific action due to the noradrenaline was suppressed.

In data set [2] the test system is disorders of the cardiac rhythm (aconitine) in rats. Description: Anti-arrhythmic activity in rats (aconitine-induced disorders of the cardiac rhythm). Type of data set: in vivo, rat. The note with it: intravenous, aconitine 10 μg/min five minutes after product, in comparison with controls. As to the method: Male rats weighing 300-350 g anesthetized by intraperitoneal route with 1.20 g/Kg of urethane were tracheotomized and submitted to artifical respiration (40-50 insufflations of 3 ml/minute). Needles were implanted sub-cutaneously to record the electro-cardiogram of the rats on the signal in derivation DII. The products under test were administered by intravenous route.
Five minutes after the product was administered, the jugular vein of the rats was perfused with 10 μg/min. of an aconitine solution and the time of appearance of disorders of the cardiac rhythm was noted. The results were expressed in percentage of the extension of the time of appearance of disorders of the cardiac rhythm in comparison with controls and as a function of the dose of the product under test.

T1 sequence (P18090 whole entry): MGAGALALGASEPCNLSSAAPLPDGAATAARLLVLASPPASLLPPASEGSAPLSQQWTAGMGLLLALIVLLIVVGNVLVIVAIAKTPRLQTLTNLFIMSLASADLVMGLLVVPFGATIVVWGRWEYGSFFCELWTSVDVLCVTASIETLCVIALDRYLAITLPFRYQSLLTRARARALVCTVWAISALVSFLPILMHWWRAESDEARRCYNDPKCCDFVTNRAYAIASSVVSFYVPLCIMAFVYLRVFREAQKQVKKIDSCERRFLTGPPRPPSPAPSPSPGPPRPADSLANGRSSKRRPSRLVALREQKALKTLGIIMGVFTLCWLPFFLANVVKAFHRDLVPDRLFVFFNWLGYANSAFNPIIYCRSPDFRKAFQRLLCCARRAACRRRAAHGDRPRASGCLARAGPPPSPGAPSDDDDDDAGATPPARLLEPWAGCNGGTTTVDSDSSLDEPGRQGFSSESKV
T2 sequence (P10608 whole entry): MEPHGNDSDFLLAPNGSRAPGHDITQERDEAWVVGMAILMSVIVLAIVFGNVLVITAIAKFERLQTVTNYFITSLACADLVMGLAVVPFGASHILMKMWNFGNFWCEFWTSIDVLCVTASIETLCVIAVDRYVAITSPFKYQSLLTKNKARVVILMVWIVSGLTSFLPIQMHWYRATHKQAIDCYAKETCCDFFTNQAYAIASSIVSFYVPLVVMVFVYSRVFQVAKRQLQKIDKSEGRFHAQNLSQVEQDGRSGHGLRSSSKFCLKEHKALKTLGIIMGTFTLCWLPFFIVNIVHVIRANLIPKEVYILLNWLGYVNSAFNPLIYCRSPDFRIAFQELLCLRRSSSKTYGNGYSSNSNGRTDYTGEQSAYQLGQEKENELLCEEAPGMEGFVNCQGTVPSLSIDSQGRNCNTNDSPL

Turning to `CC(C)NCC(O)COc1ccccc1/C=C/c1cccc2[nH]ccc12` (stereo not drawn) [Example 1, 1-[2-[2-(1H-indol-4-yl)-ethenyl]-phenoxy]-3-[isopropyl-amino]-2-propanol], the “ARL (relative affinity)” value with α2 - adrenergic receptor is 0.1%; at β1 - adrenergic receptor, 92.5%; on β2 - adrenergic receptor it was 18%. The “% Variation of the arterial pressure” value in data set [1] (1 min. after administration) is on record as -11%; in data set [1] (5 min. after administration), -11%; in data set [1] (10 min. after administration), -12%; in data set [1] (30 min. after administration) it was -13%. Besides, in the data set on mice, the “LD0 (maximum dose not causing any mortality in 8 days)” value was more than 100 mg/kg. In addition, the IC50 with Rat caudal arteries stood at 4000 nM.
Turning to `CC(C)(C)NCC(O)COc1ccccc1/C=C/c1cccc2[nH]ccc12` (stereo not drawn) [Example 2, 1-[(1,1-dimethylethyl)-amino]-3-[2-[2-(1H-indol-4-yl)-ethenyl]-phenoxy]-2-propanol], the “% Variation of the arterial pressure” value was -17% in data set [1] (1 min. after administration), -10% in data set [1] (5 min. after administration), -10% in data set [1] (10 min. after administration) and -14% in data set [1] (30 min. after administration). Further, the “LD0 (maximum dose not causing any mortality in 8 days)” value in the data set with mice is more than 100 mg/kg. The “ARL (relative affinity)” value at β1 - adrenergic receptor worked out at 198%; on β2 - adrenergic receptor it was 172%. Moreover, the IC50 in the data set with Rat caudal arteries is 1200 nM. In addition, the figures for the “Percentage of extension of time of appearance of disorders of the cardiac rhythm” value (“Percentage” below) in data set [2] (5 mg/Kg) and in data set [2] (10 mg/Kg) were 30% and 110%, respectively.
As for `CC(C)(C)NCC(O)COc1ccc(/C=C/c2cccc3[nH]ccc23)cc1` (stereo not drawn) [Example 3, 1-[(1,1-dimethylethyl)-amino]-3-[4-[2-(1H-indol-4-yl)-ethenyl]-phenoxy]-2-propanol], the results for the “ARL (relative affinity)” value with α2 - adrenergic receptor, on β1 - adrenergic receptor and on β2 - adrenergic receptor were 0.7%, 0.8% and 0.1%, respectively. Also, the “LD0 (maximum dose not causing any mortality in 8 days)” value in the data set with mice was more than 100 mg/kg. Further, the IC50 in the data set on Rat caudal arteries worked out at 600 nM.
On to `CC(C)NCC(O)COc1ccc(/C=C/c2cccc3[nH]ccc23)cc1` (stereo not drawn) [Example 4], for which the “ARL (relative affinity)” value with α2 - adrenergic receptor was found to be 0.0%; at β1 - adrenergic receptor, 1.0%; on β2 - adrenergic receptor, 0.03%. For the same compound, in the data set with mice, the “LD0 (maximum dose not causing any mortality in 8 days)” value was 60 mg/kg. In the data set with Rat caudal arteries, the IC50 came to 3500 nM.
As for `CC(C)(C)NCC(O)COc1ccc(/C=C/c2cccc3c2CC(=O)N3)cc1` (stereo not drawn) [Example 5, 1,3-dihydro-4-[2-[4-[3-[(1,1-dimethylethyl)-amino]-2-hydroxypropoxy]-phenyl]-ethenyl]-2H-indol-2-one], the “LD0 (maximum dose not causing any mortality in 8 days)” value in the data set with mice was more than 100 mg/kg. For the same compound, in the data set with Rat caudal arteries, the IC50 worked out at 2500 nM.
Turning to `CC(C)(C)NCCCOc1ccccc1/C=C/c1cccc2[nH]ccc12` [Example 6, N-(1,1-dimethylethyl)-3-[2-[2-(1H-indol-4-yl)-ethenyl]-phenoxy]-propanamine], the “LD0 (maximum dose not causing any mortality in 8 days)” value in the data set on mice was more than 400 mg/kg. In the data set on Rat caudal arteries, the IC50 turned out to be 2000 nM. In data set [2] (5 mg/Kg), the “Percentage” value is given as 49%.
As for `CC(C)(C)NCC(O)COc1ccccc1CCc1cccc2[nH]ccc12` (stereo not drawn) [Example 8, 1-[(1,1-dimethylethyl)-amino]-3-[2-[2-(1H-indol-4-yl)-ethyl]-phenoxy]-2-propanol], the “LD0 (maximum dose not causing any mortality in 8 days)” value in the data set with mice is more than 400 mg/kg. For the same compound, the IC50 in the data set with Rat caudal arteries was 1500 nM. Besides, the “Percentage” value in data set [2] (5 mg/Kg) turned out to be 162%.
Consider `CC(C)(C)NCC(O)COc1ccccc1/C=C/c1cccc2c1CC(=O)N2` (stereo not drawn) [Example 9, 1,3-dihydro-4-[2-[2-[3-[(1,1-dimethylethyl)-amino]-2-hydroxypropoxy]-phenyl]-ethenyl]-2H-indol-2-one], for which the IC50 in the data set with Rat caudal arteries came out at 1400 nM. Besides, in data set [2] (5 mg/Kg), the “Percentage” value was determined as 167%.
Take `CC(C)(C)NCCOc1ccccc1/C=C/c1cccc2[nH]ccc12` [Example 11, N-(1,1-dimethylethyl)-2-[2-[2-(1H-indol-4-yl)-ethenyl]-phenoxy]-ethanamine (trans E)]: the “LD0 (maximum dose not causing any mortality in 8 days)” value in the data set with mice is 200 mg/kg. For the same compound, the “Percentage” value in data set [2] (5 mg/Kg) is listed as 41%.
`CC(C)(C)NCCCOc1ccccc1CCc1cccc2[nH]ccc12` [Example 12, N-(1,1-dimethylethyl)-3-[2-[2-(1H-indol-4-yl)-ethyl]-phenoxy]-propanamine]: the IC50 with Rat caudal arteries was 300 nM.
